Laboratory results reported in ChEMBL document CHEMBL5576041, “13-oxyingenol dodecanoate derivatives induce mitophagy and ferroptosis through targeting TMBIM6 as potential anti-NSCLC agents” (Eur J Med Chem, 2024).

Assays:
Assay type in all cases: functional, cell-based
HepG2 = assay: Antiproliferative activity against human HepG2 cells assessed as inhibition of cell growth incubated for 24 to 72 hrs by CCK8 assay
A549 = assay: Antiproliferative activity against human A549 cells assessed as inhibition of cell growth incubated for 24 to 72 hrs by CCK8 assay
NCI-H460 = assay: Antiproliferative activity against human NCI-H460 cells assessed as inhibition of cell growth incubated for 24 to 72 hrs by CCK8 assay

| SMILES | IC50 (HepG2) | IC50 (A549) | IC50 (NCI-H460) |
| --- | --- | --- | --- |
| CCCCCCCCCCCC(=O)O[C@@]12C[C@@H](C)[C@]34C=C(C)[C@H](OC(=O)NCCCCCC)[C@@]3(O)[C@H](O)C(CO)=C[C@H](C4=O)[C@@H]1C2(C)C |  | 31 µM | 29 µM |
| CCCCCCCCCCCC(=O)O[C@@]12C[C@@H](C)[C@]34C=C(C)[C@H](OCC)[C@@]3(O)[C@H](O)C(CO)=C[C@H](C4=O)[C@@H]1C2(C)C | 13.6 µM | 27.2 µM | 45.8 µM |
| CCCCCCCCCCCC(=O)O[C@@]12C[C@@H](C)[C@]34C=C(C)[C@H](OC(=O)NCc5ccc(C)cc5)[C@@]3(O)[C@H](O)C(CO)=C[C@H](C4=O)[C@@H]1C2(C)C | 27 µM | > 50 µM |  |
| CCCCCCCCCCCC(=O)O[C@@]12C[C@@H](C)[C@]34C=C(C)[C@H](OC(=O)c5ccc6ccccc6c5)[C@@]3(O)[C@H](O)C(CO)=C[C@H](C4=O)[C@@H]1C2(C)C | > 50 µM | > 50 µM |  |
| CCCCCCCCCCCC(=O)O[C@@]12C[C@@H](C)[C@]34C=C(C)[C@H](OC(=O)NCCCCCCCC)[C@@]3(O)[C@H](O)C(CO)=C[C@H](C4=O)[C@@H]1C2(C)C |  | 19.1 µM | 14.3 µM |
| CCCCCCCCCCCC(=O)O[C@@]12C[C@@H](C)[C@]34C=C(C)[C@H](OC(=O)c5ccc(OC)cc5)[C@@]3(O)[C@H](O)C(CO)=C[C@H](C4=O)[C@@H]1C2(C)C | 14.3 µM | 23.6 µM |  |
| CCCCCCCCCCCC(=O)O[C@@]12C[C@@H](C)[C@]34C=C(C)[C@H](OC(=O)NCCCC)[C@@]3(O)[C@H](O)C(CO)=C[C@H](C4=O)[C@@H]1C2(C)C | 10.3 µM | 25.6 µM | 9.7 µM |
| CCCCCCCCCCCC(=O)O[C@@]12C[C@@H](C)[C@]34C=C(C)[C@H](OC(=O)NCCCCC)[C@@]3(O)[C@H](O)C(CO)=C[C@H](C4=O)[C@@H]1C2(C)C | 1.7 µM | 32.8 µM | 5.4 µM |
| CCCCCCCCCCCC(=O)O[C@@]12C[C@@H](C)[C@]34C=C(C)[C@H](OC(=O)c5ccc(-c6ccccc6)cc5)[C@@]3(O)[C@H](O)C(CO)=C[C@H](C4=O)[C@@H]1C2(C)C | > 50 µM | > 50 µM |  |
| CCCCCCCCCCCC(=O)O[C@@]12C[C@@H](C)[C@]34C=C(C)[C@H](OCCC)[C@@]3(O)[C@H](O)C(CO)=C[C@H](C4=O)[C@@H]1C2(C)C | 12.7 µM | 30 µM |  |
| CCCCCCCCCCCC(=O)O[C@@]12C[C@@H](C)[C@]34C=C(C)[C@H](O)[C@@]3(O)[C@H](O)C(COC(=O)c3ccc(F)cc3)=C[C@H](C4=O)[C@@H]1C2(C)C | 7.6 µM | 21.2 µM | 4.5 µM |
| CCCCCCCCCCCC(=O)O[C@@]12C[C@@H](C)[C@]34C=C(C)[C@H](OC(=O)c5ccccc5)[C@@]3(O)[C@H](O)C(CO)=C[C@H](C4=O)[C@@H]1C2(C)C | 14.5 µM | 23.8 µM |  |
| C/C=C(/C)C(=O)O[C@H]1C(C)=C[C@]23C(=O)[C@@H](C=C(CO)[C@@H](O)[C@]12O)[C@H]1[C@@H](C[C@H]3C)C1(C)C [INGENOL MEBUTATE] | > 50 µM | > 50 µM | > 50 µM |
| CCCCCCCCCCCC(=O)O[C@@]12C[C@@H](C)[C@]34C=C(C)[C@H](OC(=O)c5ccc(Br)cc5)[C@@]3(O)[C@H](O)C(COC(=O)c3ccc(Br)cc3)=C[C@H](C4=O)[C@@H]1C2(C)C |  | > 50 µM | > 50 µM |
| CCCCCCCCCCCC(=O)O[C@@]12C[C@@H](C)[C@]34C=C(C)[C@H](OC(=O)N5CCCC5)[C@@]3(O)[C@H](O)C(CO)=C[C@H](C4=O)[C@@H]1C2(C)C | 21.1 µM | 27.9 µM |  |
| CCCCCCCCCCCC(=O)O[C@@]12C[C@@H](C)[C@]34C=C(C)[C@H](O)[C@@]3(O)[C@H](O)C(COC(=O)c3ccc(Br)cc3)=C[C@H](C4=O)[C@@H]1C2(C)C |  | > 50 µM | > 50 µM |

Stronger by IC50 (A549), values ahead:

| IC50 (HepG2) | IC50 (A549) | IC50 (NCI-H460) | SMILES |
| --- | --- | --- | --- |
| 13.6 µM | 16.6 µM |  | CCCCCCCCCCCC(=O)O[C@@]12C[C@@H](C)[C@]34C=C(C)[C@H](OC)[C@@]3(O)[C@H](O)C(CO)=C[C@H](C4=O)[C@@H]1C2(C)C |
| > 50 µM | 12.5 µM | 5.4 µM | CCCCCCCCCCCC(=O)O[C@@]12C[C@@H](C)[C@]34C=C(C)[C@H](OC(=O)c5ccc(F)cc5)[C@@]3(O)[C@H](O)C(COC(=O)c3ccc(F)cc3)=C[C@H](C4=O)[C@@H]1C2(C)C |
| 8.8 µM | 16.2 µM | 23.5 µM | CCCCCCCCCCCC(=O)O[C@@]12C[C@@H](C)[C@]34C=C(C)[C@H](OCc5ccccc5)[C@@]3(O)[C@H](O)C(CO)=C[C@H](C4=O)[C@@H]1C2(C)C |
| > 50 µM | 10 µM | 7.9 µM | CCCCCCCCCCCC(=O)O[C@@]12C[C@@H](C)[C@]34C=C(C)[C@H](OC(=O)c5ccc(Br)cc5)[C@@]3(O)[C@H](O)C(CO)=C[C@H](C4=O)[C@@H]1C2(C)C |
| 13.5 µM | 18.1 µM |  | CCCCCCCCCCCC(=O)O[C@@]12C[C@@H](C)[C@]34C=C(C)[C@H](OC(=O)NC(C)C)[C@@]3(O)[C@H](O)C(CO)=C[C@H](C4=O)[C@@H]1C2(C)C |
| 12.7 µM | 13.7 µM |  | CCCCCCCCCCCC(=O)O[C@@]12C[C@@H](C)[C@]34C=C(C)[C@H](OC(=O)NC5CC5)[C@@]3(O)[C@H](O)C(CO)=C[C@H](C4=O)[C@@H]1C2(C)C |
| 10.9 µM | 9.4 µM | 11.8 µM | CCCCCCCCCCCC(=O)O[C@@]12C[C@@H](C)[C@]34C=C(C)[C@H](OC(=O)NCc5ccc(F)cc5)[C@@]3(O)[C@H](O)C(CO)=C[C@H](C4=O)[C@@H]1C2(C)C |
| 15.5 µM | 12.8 µM | 2.6 µM | CCCCCCCCCCCC(=O)O[C@@]12C[C@@H](C)[C@]34C=C(C)[C@H](O)[C@@]3(O)[C@H](O)C(COC(=O)c3ccc([N+](=O)[O-])cc3)=C[C@H](C4=O)[C@@H]1C2(C)C |
| 12 µM | 14.2 µM |  | CCCCCCCCCCCC(=O)O[C@@]12C[C@@H](C)[C@]34C=C(C)[C@H](OC(=O)c5ccc([N+](=O)[O-])cc5)[C@@]3(O)[C@H](O)C(CO)=C[C@H](C4=O)[C@@H]1C2(C)C |
| 13.4 µM | 17.1 µM |  | CCCCCCCCCCCC(=O)O[C@@]12C[C@@H](C)[C@]34C=C(C)[C@H](OC(=O)C5CCCCC5)[C@@]3(O)[C@H](O)C(CO)=C[C@H](C4=O)[C@@H]1C2(C)C |
| 8.7 µM | 11.9 µM | 17.9 µM | CCCCCCCCCCCC(=O)O[C@@]12C[C@@H](C)[C@]34C=C(C)[C@H](OC(=O)NC5CCCC5)[C@@]3(O)[C@H](O)C(CO)=C[C@H](C4=O)[C@@H]1C2(C)C |
